What was measured:
C57BL/6J mice = test: Oral glucose tolerance test; format: in vivo; settings: Table 2; 100 mg/kg oral gavage, 3 g/kg oral glucose, mice fasted 6 hours
Procedure: 8-10 week old male C57BL/6J mice (Harlan) were maintained on regular chow diet from Harlan (2018 Teklad Global). On the day of the experiment mice were fasted for 6 hours, then randomized into groups (n=10-15) to receive the tested GPR120 agonist at doses ranging from 100 mg/kg or the vehicle (1% CMC, 2% TWEEN 80). Compounds were delivered orally via gavage at 10 mL/kg. Blood glucose levels were measured by glucometer (Ascensia Elite XL, Bayer) at time −30 minutes before administration of compound. Blood glucose was measured again after 30 minutes (at time 0), and then the mice were dosed orally with 3 g/kg glucose at 10 mL/kg. […]
Glucose levels were plotted against time, and the incremental area under the curve (AUC) of the glucose excursion was determined from time 0 using Graphpad Prism 5.01. Outliers were excluded using Tukey's box plot outlier test, and statistical significance of differences in AUC of compound treatment compared to vehicle was determined by non-parametric Kruskal-Wallis test with Dunn's post test.
Tables 2 and 3 below show the mean percentage inhibition of the glucose excursion for the fifteen animals tested in each group. The compounds were tested at 100 mg/kg and the levels of blood glucose were determined in the presence and absence of the tested compounds. […]

human GPR120 [1] = target: T1, human GPR120 (Homo sapiens, UniProt Q5NUL3); test: Intracellular Ca2+ assay (FLIPR Calcium 4, Flexstation) in human GPR120 stable cell line; format: cell-based; settings: % activity at 5 μM compared to the maximal activity of GW9508 at 6.7 μM; HEK293 cells co-expressing Gqi5
T1 construct: Flag (DYKDDDDK) (N); host or cells: HEK293 cells co-expressing Gqi5
T1 sequence (Q5NUL3 1-361): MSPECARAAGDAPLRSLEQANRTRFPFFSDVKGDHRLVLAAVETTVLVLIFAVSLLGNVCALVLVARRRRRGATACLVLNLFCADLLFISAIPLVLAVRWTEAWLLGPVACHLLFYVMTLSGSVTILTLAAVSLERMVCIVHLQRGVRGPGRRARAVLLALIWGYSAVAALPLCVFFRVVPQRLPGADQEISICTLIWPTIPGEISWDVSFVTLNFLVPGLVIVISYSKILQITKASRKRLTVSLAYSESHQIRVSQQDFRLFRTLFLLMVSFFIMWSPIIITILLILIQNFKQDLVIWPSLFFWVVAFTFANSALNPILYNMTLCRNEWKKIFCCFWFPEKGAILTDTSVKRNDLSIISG

human GPR120 [2] = target: T1, human GPR120; test: as above; format: cell-based; settings: % activity at 2.5 μM compared to the maximal activity of the compound of Example 25 at 2.5 μM; HEK293 cells co-expressing Gqi5
Method in brief: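 HEK293 cells co-expressing Gqi5 and stably expressing Flag-tagged human GPR120 were seeded at 70,000 cells per well in poly-D-lysine coated 96 well plates and loaded with FLIPR Calcium 4 dye for 50 minutes at 37° C. On a Flexstation, compound-induced fluorescence (excitation 485 nm, emission 525) was recorded for 90 seconds. Percent activity was expressed against a reference agonist's maximal activity at 2.5 μM, set as 100%.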

Row | SMILES | % Activity (Ex. 25 Reference Compound) (human GPR120 [2]) | further results
1 | CC(Cc1ccc(OCc2cc(Cl)cc3c2OC(C)(C)C3)c(F)c1)C(=O)O (stereo not shown) [Example 10, 3-(4-((5-chloro-2,2-dimethyl-2,3-dihydrobenzofuran-7-yl)methoxy)-3-fluorophenyl)-2-methylpropanoic acid] |  | % reduction AUC glucose excursion at 100 mg/kg (C57BL/6J mice): 58.1%
2 | CC(Cc1ccc(OCc2cccc3c2CC(C)(C)O3)cc1)C(=O)O (stereo not shown) [Example 17, 3-(4-((2,2-dimethyl-2,3-dihydrobenzofuran-4-yl)methoxy)phenyl)-2-methylpropanoic acid] |  | % Activity (GW9508 Reference Compound) (human GPR120 [1]): 72.21%
3 | CC1(C)Cc2cc(F)cc(COc3ccc4c(CC(=O)O)coc4c3)c2O1 [Example 262, 2-(6-((5-fluoro-2,2-dimethyl-2,3-dihydrobenzofuran-7-yl)methoxy)benzofuran-3-yl)acetic acid] | 137.39% | 
4 | CC1(C)Cc2cc(F)cc(COc3ccc4c(CC(=O)O)cc(=O)oc4c3)c2O1 [Example 263, 2-(7-((5-fluoro-2,2-dimethyl-2,3-dihydrobenzofuran-7-yl)methoxy)-2-oxo-2H-chromen-4-yl)acetic acid] | 5.98% | 
5 | CC(Cc1ccc(OCc2cc(F)cc3c2OC(C)(C)C3)cc1)C(=O)NO (stereo not shown) [Example 264, 3-(4-((5-fluoro-2,2-dimethyl-2,3-dihydrobenzofuran-7-yl)methoxy)phenyl)-N-hydroxy-2-methylpropanamide] | 110.24% | 
6 | CC(C)C(CC(=O)O)c1ccc(OCc2cc(Cl)cc3c2OC(C)(C)C3)cc1 (stereo not shown) [Example 266, 3-(4-((5-chloro-2,2-dimethyl-2,3-dihydrobenzofuran-7-yl)methoxy)phenyl)-4-methylpentanoic acid] | 42.73% | 
7 | Cc1c(CCC(=O)O)ccc(OCc2cc(Cl)cc3c2CC(C)(C)O3)c1C [Example 267, 3-(4-((6-chloro-2,2-dimethyl-2,3-dihydrobenzofuran-4-yl)methoxy)-2,3-dimethylphenyl)propanoic acid] | 140.82% | 

— patent US8598374B2, “GPR120 receptor agonists and uses thereof” (Metabolex, Inc, priority 2008, dated 2013)
